# Experimental data as given in publication PMC11232401, “Characterization of antimalarial activity of artemisinin-based hybrid drugs” (Antimicrobial Agents and Chemotherapy, 2024).
# Read-outs that look alike come from different tables or passages of the source.
# Tests used:
# [1] = test system: ring stages of NF54 strain of P. falciparum; assay: Exposure time dependence in drug activity (pLDH); assay type: cell-based; conditions: Plasmodium falciparum
# Method: Each well of 96-well plates was filled with 100 µL drug and 100 µL culture containing ring-stage P. falciparum (NF54 strain) parasites, which were mixed to obtain a final parasitemia of 1.0% to 1.5% and 1.0% hematocrit. Plates were incubated at 37°C in a standard gas mixture. After 3 h and 6 h, plates were centrifuged, cell pellets were washed as described above then returned to the incubator for an additional 69 h and 66 h, respectively. In parallel, the same experiment was left without the washing step, enabling continuous drug exposure throughout. Plates were processed using the pLDH method, and IC50 values were calculated as described above. Three independent experiments were performed using two technical replicates.
# Figure S2: Exposure time dependence of antiparasitic activity against ring stages of CQ-sensitive strain NF54 of P. falciparum. Data associated to Figure 2B in the main text of the manuscript. Footnotes for table: ^[a] Synchronized ring-stage parasites were incubated in the presence of compounds at indicated times, drugs were removed by washing, and plates were incubated until 72 h.^[b] Parasites were incubated in the presence of compounds for 72 h. ^[a,b^] Experiments were performed in parallel (paired). Parasite viability was determined by parasite lactate dehydrogenase (pLDH) assay. Data are from three experiments performed in duplicate.^ [c] […] MFQ = mefloquine. DHA = dihydroartemisinin; SEM = standard error of the mean; N.S. = not statistically significant.
# [2] = test system: NF54 strain of P. falciparum; assay: Ring-stage-specific drug activity (pLDH); assay type: cell-based; conditions: Plasmodium falciparum, median ± SEM
# Method: Each compound was dissolved in dimethyl sulfoxide (DMSO) and diluted in RPMI-1640 medium into seven different concentrations, which were tested against CQ-susceptible strains (NF54 or D10) or a CQ-resistant strain (W2). Each well of 96-well plates was filled with 100 µL drug and 100 µL parasitized RBC (asynchronous parasite culture), which were mixed to obtain a final parasitemia of 1.0% to 1.5% and 1.0% hematocrit. Plates were incubated for 72 h at 37°C in a standard gas mixture; then, parasite growth was determined by measuring the activity of the parasite lactate dehydrogenase (pLDH) ([38]). Briefly, at the end of incubation, the cultures were carefully resuspended, and 20 µL aliquots were removed and added to 100 µL Malstat reagent in a 96-well microplate. The Malstat reagent is made of 0.125% TritonX-100, 130 mM L-lactate, 30 mM Tris buffer, and 0.62 µM 3-acetylpyridine adenine dinucleotide. After that, 20 µL 1.9 µM nitro blue tetrazolium (NBT) and 0.24 µM phenazine ethyl sulfate were added to the plate. NBT was reduced to blueformazan and spectrophotometrically read at OD 650 nm using a Synergy 4 microplate reader (BioTek, Santa Clara, USA). […] IC50 values were expressed as means of two to three independent experiments, with each drug concentration in duplicate.
# The NF54 strain of P. falciparum was employed to test the drugs’ activity against ring stages and asynchronous parasite culture (all stages). The ring stages were obtained by synchronization with D-Sorbitol using a standard method ([39]). Each well of 96-well plates was filled with 100 µL each drug and 100 µL culture containing ring-stage or asynchronous parasites, which were mixed to obtain a final parasitemia of 1.0% to 1.5% and 1.0% hematocrit. […] Plates were processed using the pLDH method, and IC50 values were calculated as described above. At least two to three independent experiments were performed, using two technical replicates.
# ^[a] Synchronized ring-stage parasites were incubated in the presence of compounds for 6 h, drugs were removed by washing, and plates were incubated for an additional 66 h. ^[b] Asynchronous parasites were incubated in the presence of compounds for 6 h, drugs were removed by washing, and plates were incubated for an additional 66 h. ^[c] Asynchronous parasites were incubated in the presence of compounds for 72 h. ^[a,b^] Experiments were performed in parallel. ^[d] […] Parasite viability was determined by parasite lactate dehydrogenase. Data are from three experiments performed in duplicate. MFQ = mefloquine; DHA = dihydroartemisinin; SEM = standard error of the mean.
# [3] = test system: Asynchronous NF54 strain of P. falciparum; assay: Speed of drug activity (pLDH); assay type: cell-based, Plasmodium falciparum; conditions: for IC50: Plasmodium falciparum, NF54, asynchronous, mean (95% CI); for Conclusion (speed of antiparasitic activity): from IC50 at 24, 48, 72 h
# Method: Each well of 96-well plates was filled with 100 µL drug and 100 µL culture containing asynchronous P. falciparum (NF54 strain) parasites, which were mixed to obtain a final parasitemia of 1.0% to 1.5% and 1.0% hematocrit. The plates were incubated for 24, 48, and 72 h at 37°C with a standard gas mixture. […] Parasite viability was measured using the pLDH method, and IC50 values were calculated as described above. Three independent experiments were performed using two technical replicates.
# Figure S3: Speed of antiparasitic activity of hybrids (1) and (2) against CQ-sensitive NF54 strain of P. falciparum. Panel A: Representative response-concentration curves. Panel B: A table summarizing the results. Footnotes for table: ^[a] Parasite viability was accessed at each indicated time (24, 48, or 72 h) after addition of drugs. Values are the mean and 95% confidence interval of one experiment using each concentration of compounds in duplicate. Parasite viability was determined by parasite lactate dehydrogenase (pLDH) assay. DHA = dihydroartemisinin; ATO = atovaquone.
# [4] = test system: F32-TEM (sensitive) early ring-stage parasites; assay: Ring-stage survival assay (RSA0-3h); assay type: cell-based, Plasmodium falciparum; conditions: 700 nM, 6 h pulse, 66 h growth
# Method: Early ring-stage parasites (0–3 h post-invasion) of F32-ART and F32-TEM strains highly synchronized by Percoll-Sorbitol treatment were exposed to 700 nM of the drugs or 0.1% DMSO (control) for 6 h. Each drug was tested in duplicate. Parasite pellets were then washed in RPMI-1640 medium before being placed in drug-free culture conditions with 10% human serum and incubated for 66 h ([44]). Survival rates were assessed microscopically by two independent microscopists by counting the parasites in 10,000 RBCs. Three independent experiments were performed.
# [5] = NF54, 6 h drug pulse, wash, incubated until 72 h, median ± SEM, read-out: IC50, 6 h + 66 h
# [6] = NF54, 72 h continuous drug, median ± SEM, read-out: IC50, 72 h
# [7] = NF54, read-out: IC50, 3 h + 69 h, 3 h drug pulse, wash, incubated until 72 h, median ± SEM
# [8] = asynchronous parasites, 6 h drug, wash, additional 66 h, read-out: IC50, Asynchronous
# [9] = asynchronous parasites, 72 h continuous drug, read-out: IC50, 72 h
# [10] = synchronized ring stages, 6 h drug, wash, additional 66 h, read-out: IC50, Ring stages
# [11] = viability at 24 h, read-out: IC50, 24 h
# [12] = viability at 48 h, read-out: IC50, 48 h
# [13] = viability at 72 h, read-out: IC50, 72 h
SMILES,"IC50 [1, 5]","IC50 [1, 6]","IC50 [1, 7]","IC50 [2, 8]","IC50 [2, 9]","IC50 [2, 10]","IC50 [3, 11]","IC50 [3, 12]","IC50 [3, 13]",Conclusion (speed of antiparasitic activity) [3],"Survival rate (%) from the RSA0-3h, F32-TEM (sensitive) [4]"
"C[C@H]1[C@@H](O)O[C@@H]2O[C@@]3(C)CC[C@H]4[C@H](C)CC[C@@H]1[C@@]24OO3 [DHA, dihydroartemisinin, reference compound]",5 ± 0.5 nM,1.9 ± 0.2 nM,100 ± 25 nM,4.6 ± 0.9 nM,2.1 ± 0.6 nM,5 ± 0.5 nM,8.3 nM,2.9 nM,2.7 nM,Fast-acting,0.04 ± 0.03%
COCCOCCOCCOCCn1c(-c2ccc(-n3cc(-c4ccc(OC5OC6OC7(C)CCC8C(C)CCC(C5C)C68OO7)cc4)nn3)cc2)nc2ccccc21 (stereo not drawn) [Hybrid 1],1.5 ± 0.3 nM,1.5 ± 0.1 nM,220 ± 80 nM,3.5 ± 0.3 nM,3 ± 0.3 nM,1.5 ± 0.3 nM,2.4 nM,3 nM,2 nM,Fast-acting,0.05 ± 0.03%
CC1CCC2C(C)C(OC(=O)CCC(=O)OCCNc3ccnc4cc(Cl)ccc34)OC3OC4(C)CCC1C32OO4 (stereo not drawn) [Hybrid 2],9 ± 1.5 nM,3.8 ± 0.4 nM,75 ± 18 nM,19.1 ± 1.8 nM,8.1 ± 1 nM,9 ± 1.5 nM,9.4 nM,4.3 nM,5.6 nM,Fast-acting,0.04 ± 0.02%
